Entries after “also recorded” stand apart in the source; their conditions may differ.
Legend:
[1] = tested on: brewer's yeast-induced fever; assay: Effects on body temperature in pyretic rats (antipyretic activity); type: in vivo, SD-strain male rats; conditions: iv, 17 h, read-out: ED50 (dose reducing body temperature by at least 1.5° C. in 50% of the rats)
Description: (a) Experimental animals SD-strain male rats (120-185 g).
(b) Test drugs: The same as in A-1 [Test 2].
Male Sprague-Dawley rats, weighing 120-185 g, were injected subcutaneously in the nape of the neck with 2 ml of a 20% suspension of dried brewers yeast in physiological saline. Drugs and vehicles were administered intravenously 17 hours after treatment of yeast suspension. Rectal temperature was recorded with a thermistor type thermometer (Natsume Seisakusho, BMA-77 Type) just prior to drug administration and at 1/2, 1, 2 and 4 hours after drug administration.

[2] = Toxicity test, single tail vein administration, 3 days observation; type: in vivo, Charles River-strain SD male rats; conditions: rat, in vivo, iv; read-out: Doses with no change in general symptoms and autopsy
Description: (§1) Charles River-strain SD male rats (6 weeks old; body weight 160-170 g), 5 per group, were used. […] The doses were 50, 100, 200 and 400 mg/kg. As a control, an aqueous solution of sodium 4-biphenylylacetate was administered.

[3] = tested on: Charles River-strain SD male rats; assay: as above; type: in vivo
Description: as §1

O=C([O-])Cc1ccc(-c2ccccc2)cc1.[Na+]
ED50 [1]: 2.6 mg/kg
NOAEL at 72 h [2]: ≥ 50 mg/kg
Findings: autopsy ([3]; 50 mg/kg i.v.): No change
Findings: general symptoms ([3]; 50 mg/kg i.v.): No change
Number of the dead ([3]; 50 mg/kg i.v. as 4-biphenylylacetic acid): 0/5
Findings: general symptoms (spontaneous motion) ([3]; 100 mg/kg i.v.): motion decreased
Number of the dead ([3]; 100 mg/kg i.v. as 4-biphenylylacetic acid): 0/5
Findings: general symptoms ([3]; 200 mg/kg i.v.): tarry feces
Number of the dead ([3]; 200 mg/kg i.v. as 4-biphenylylacetic acid): 3/5
Number of the dead ([3]; 400 mg/kg i.v. as 4-biphenylylacetic acid): 3/5
Findings: autopsy ([3]; at least 100 mg/kg i.v.): Peptic ulcer occurred; also recorded: intestinal adherence
Findings: general symptoms ([3]; at least 100 mg/kg i.v.): Body weight increase inhibition
Findings: general symptoms ([3]; at least 200 mg/kg i.v.): pallor
Doses at which changes occurred ([3]; rat, in vivo): more than 100 mg/kg

Reference: patent US4647586A, “Pharmaceutical oil-in-water type micro-emulsion” (priority 1984, dated 1987)
